Results on 1 compound are retold here after BindingDB's records for PubMed 9808667 (Dupont Pharmaceuticals, 1998).

Square brackets hold non-standard residues; d marks the D form. Peptide text beside a SMILES is read from it.

The assay addresses T1, Galanin receptor type 1 (Homo sapiens, UniProt P47211).
T1 sequence (P47211 whole entry): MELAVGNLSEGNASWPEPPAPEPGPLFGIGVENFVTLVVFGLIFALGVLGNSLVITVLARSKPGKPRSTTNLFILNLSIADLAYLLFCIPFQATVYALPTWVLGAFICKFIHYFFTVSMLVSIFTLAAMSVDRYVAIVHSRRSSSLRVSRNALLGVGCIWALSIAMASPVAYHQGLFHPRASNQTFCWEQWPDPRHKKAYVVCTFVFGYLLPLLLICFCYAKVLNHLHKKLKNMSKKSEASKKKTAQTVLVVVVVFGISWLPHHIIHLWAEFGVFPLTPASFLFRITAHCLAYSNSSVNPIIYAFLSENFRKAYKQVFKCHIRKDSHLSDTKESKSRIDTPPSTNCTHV

Turning to `CC(C)C[C@H](NC(=O)[C@H](CC(C)C)NC(=O)[C@@H](Cc1c[nH]c2ccccc12)NC(=O)[C@H](Cc1ccccc1)NC(=O)[C@@H](Cc1c[nH]c2ccccc12)NC(=O)[C@H](CCC(N)=O)NC(=O)[C@H](CCC(N)=O)NC(=O)[C@@H]1CCCN1C(=O)[C@H](CCCCN)NC(=O)[C@@H]1CCCN1C(=O)[C@@H](CCCNC(=N)N)NC(=O)[C@@H]1CCCN1C(=O)CNC(=O)[C@H](CC(C)C)NC(=O)[C@H](CC(C)C)NC(=O)[C@H](Cc1ccc(O)cc1)NC(=O)CNC(=O)[C@H](C)NC(=O)[C@H](CO)NC(=O)[C@H](CC(N)=O)NC(=O)[C@H](CC(C)C)NC(=O)[C@@H](NC(=O)[C@H](Cc1c[nH]c2ccccc12)NC(=O)CN)[C@@H](C)O)C(N)=O` [Gal(1-13)-Std I] (H-GWTLNSAGYLLGP[dR]PKPQQ[dW]F[dW]LL-NH2), the affinity corresponds to a Ki of 685 nM.

The term Ki denotes a measure of affinity in units of concentration, obtained from inhibition or displacement. Read a low Ki as tighter binding.
